Measurements published in article PMC11546719, “Immune Modulatory Profile of the Pateamines PatA and Des-Methyl Des-Amino PatA” (International Journal of Molecular Sciences, 2024).

Experiments:
M1 MdMs [1] = assay: Polarization of MdMs to M1 MdMs (zombie staining, flow cytometry, ELISA/CBA); format: cell-based, human; settings: for Surface marker expression (CD86, CD80, TREM2, HLA-DR, CD206, CD14, CD163) / Apoptosis (zombie staining) / Inflammatory environment: release of cytokines (IL-6, IL-8, CCL2, CCL17, CL18, IFN-γ) and PGE2: M1 MdMs; for Surface marker expression (CD86, CD80, TREM2, HLA-DR, CD206, CD14, CD163) / Apoptosis (zombie staining): 48 h; for Surface marker expression (CD86, CD80, TREM2, HLA-DR, CD206, CD14, CD163): flow cytometry; for Apoptosis (zombie staining): IFN-γ polarization, 0.5-5 nM; for Inflammatory environment: release of cytokines (IL-6, IL-8, CCL2, CCL17, CL18, IFN-γ) and PGE2: supernatant, ELISA or CBA; for Effect on the release of inflammatory markers, M1 MdM: summary table
Method: (§1) The differentiation of human monocytes to macrophages (MdMs) was performed as previously described. Briefly, 0.5 × 10^6 CD14^+ cells/well were pretreated with different concentrations of PatA and DMDA or vehicle (DMSO) for 30 min. After pre-incubation, differentiation was initiated by the addition of 10 ng/mL GM-CSF for M1 MdMs or 50 ng/mL M-CSF for M2 MdMs and incubated for 7 days.
(§2) The polarization of MdMs to M1 or M2 MdMs was performed as previously described. M1 and M2 MdM polarization was conducted in separate experiments. Briefly, M1 MdMs were polarized in presence of PatA (0.5, 2.5, 5 nM), DMDA (0.5, 2.5, 5 nM) or vehicle (DMSO) with 20 ng/mL human IFN-γ for 48 h. M2 MdMs were polarized in presence of PatA (0.5, 2.5, 5 nM), DMDA (0.5, 2.5, 5 nM) or vehicle (DMSO) with 10 ng/mL human IL-4 for 24 h.
(§3) Surface marker analysis was performed as described previously. Briefly, 1.5–2 × 10^5 cells of each sample were blocked with human FcR Blocking Reagent (15 min, 4 °C). A Zombie Aqua™ Fixable Viability Kit (1:500 dilution, BioLegend, San Diego, CA, USA) was used according to the manufactory protocol to discriminate living and dead cells. Afterwards, samples were stained with a mixture of different surface marker antibodies (15 min, 4 °C) and measured with MACSQuant® Analyzer 10 flow cytometer. For M1-/M2-MdMs anti-CD86, anti-CD14, anti-HLA-DR, anti-CD206, anti-CD80, anti-TREM2 and anti-CD163 were used. For T cells, anti-CD69, anti-CD54, anti-CD49a, anti-CD18, anti-CD134, anti-CD154, anti-CD3 and anti-CD25 were analyzed. For B cells, anti-CD27, anti-CD19 and anti-CD38 were applied. For T cell and B cell proliferation assay, freshly isolated T and B cells were stained with CTV and detected using flow cytometry. Naïve B cells were characterized as CD19^+CD27^lowCD38^med, memory B cells as CD19^+CD27^med CD38^low and plasma cells as CD27^+CD38^+ cells. M1 MdMs and M2 MdMs cell population was gated using FSC/SSC channel. T cells were gated as CD3^+CD25^+ positive cells. The geometric mean of the fluorescent intensity was calculated using FlowJo software v10 (Treestar, Ashland, […], USA). Fold induction of surface marker expression was calculated using the DMSO-treated cells as the control.
(§4) For determination of cytokine concentrations in the supernatant of humane immune cells, cytometric bead array (BD Biosciences, Heidelberg, Germany) for IL-10, IL-17, IL-8, IL-6, IFN-γ and CCL2 was used. For the detection of CCL18, CCL17, IgG, IgA and PGE2, an ELISA was performed. The cytometric bead arrays and the ELISAs were performed according to the protocol of the supplier.

M2 MdMs [2] = assay: Polarization of MdMs to M2 MdMs (zombie staining, flow cytometry, ELISA/CBA); format: cell-based, human; settings: for Inflammatory environment (inflammatory mediators in supernatant): ELISA or CBA; for Apoptosis (zombie staining): IL-4 polarization, 0.5-5 nM; for Effect on the release of inflammatory markers, M2 MdM: summary table
Method: as §1, §2, §3, §4

M1 MdMs [3] = assay: Energy metabolism (Seahorse OCR/ECAR) in M1 MdMs; format: cell-based, human; settings: 48 h, 0.5-5 nM
Method: (§5) The determination of the energy metabolism was performed as described previously. Briefly, for the analysis of the extracellular acidification rate (ECAR) and the oxygen consumption rate (OCR) for human B cells, Tcells, M1 MdMs and M2 MdMs, the Seahorse XFe96 FluxPak (Agilent, Waldbronn, Germany) was used as recommended by the manufacturer. MdMs were polarized to M1 or M2 MdMs in the presence of PatA (0.5, 2.5, 5 nM), DMDA (0.5, 2.5, 5 nM) or vehicle (DMSO) for 48 h or 24 h, respectively. T cells were activated in the presence of PatA (0.25, 0.5 nM), DMDA (0.25, 0.5 nM), silvestrol or DMSO. B cells were activated in the presence of PatA (0.25, 0.5 nM), DMDA (0.25, 0.5 nM), silvestrol (5 nM) or rapamycin (10 ng/mL positive control). Cells were washed with Seahorse XF RPMI medium pH 7.4 (Agilent, Waldbronn, Germany) and OCR and ECAR were measured as octuplicates for a period of 160 min using the Seahorse XFe96 Analyzer (Agilent, Waldbronn, Germany) and analyzed by Wave Software 2.6.3.8 (Agilent, Waldbronn, Germany). The relative values were calculated by relating the OCR or ECAR values obtained after 50 min to the values of the vehicle control (not stimulated).

M2 MdMs [4] = assay: Energy metabolism (Seahorse OCR/ECAR) in M2 MdMs; format: cell-based, human; settings: 24 h, 0.5-5 nM
Method: as §5

T cells = assay: Energy metabolism (Seahorse OCR/ECAR) in T cells; format: cell-based, human; settings: 5 days, PatA, DMDA 0.25-0.5 nM, silvestrol 5 nM
Method: as §5

B cells = assay: Energy metabolism (Seahorse OCR/ECAR) in B cells; format: cell-based, human; settings: 5 days, PatA, DMDA 0.25-0.5 nM, silvestrol 5 nM, rapamycin 10 ng/mL
Method: as §5

[5] = tested on: Salmonella typhimurium strain TA98; assay: Ames MPF test, strain TA98; format: cell-based; settings: TA98, with and without S9, 10-250 nM
Method: (§6) The Ames MPF 98/100 test (Xenometrix, Allschwil, Switzerland) was performed as recommended by the supplier and recently published. Briefly, two bacteria strains incapable of producing histidine (Salmonella typhimurium strains TA98 and TA100) were used. Liver homogenate S9 was applied to simulate the metabolic conversions of PatA and DMDA. After exposure to increasing concentrations of PatA (0, 10, 50, 250 nM), DMDA (0, 10, 50, 250 nM) or with positive controls (2 μg/mL for 2-NF (TA98), 2.5 μg/mL for 4-NQO (TA100), 63 μg/mL (TA100 with SF9) and 25 µg/mL (TA98 with SF9) for 2-AA), the cultures were diluted in pH indicator medium lacking histidine and incubated for two days. Cells that had undergone reversion to amino acid prototrophy grew into colonies and bacterial metabolism reduced the pH of the medium, changing the color of that well. Revertant colony numbers of each well were counted and related to the negative control (DMSO). The experiment was conducted once in triplicate. The Ames MPF calculation sheet provided by Xenometrix was used for data analysis. Fold induction over the baseline was calculated as the ratio of the mean number of positive wells to the baseline. The baseline was obtained by adding one standard deviation to the mean number of positive wells of the solvent control. Compounds with mutagenic potential were characterized by revertant numbers above the baseline.

[6] = tested on: Salmonella typhimurium strain TA100; assay: Ames MPF test, strain TA100; format: cell-based; settings: TA100, with and without S9, 10-250 nM
Method: as §6

[7] = M2 MdMs, CD163low population, 24 h

| SMILES | Surface marker expression (CD86, CD80, TREM2, HLA-DR, CD206, CD14, CD163) (M1 MdMs [1]) | Apoptosis (zombie staining) (M1 MdMs [1]) | Inflammatory environment: release of cytokines (IL-6, IL-8, CCL2, CCL17, CL18, IFN-γ) and PGE2 (M1 MdMs [1]) | Effect on the release of inflammatory markers, M1 MdM (M1 MdMs [1]) | TREM2 surface marker expression (M2 MdMs [2]; M2 MdMs, CD163low population, 24 h, 5 nM) | Inflammatory environment (inflammatory mediators in supernatant) (M2 MdMs [2]; M2 MdMs) | Apoptosis (zombie staining) (M2 MdMs [2]; M2 MdMs, 24 h) | Effect on the release of inflammatory markers, M2 MdM (M2 MdMs [2]) | Energy metabolism: glycolysis (ECAR) and oxidative phosphorylation (OCR) (M1 MdMs [3]) | Energy metabolism: glycolysis (ECAR) and oxidative phosphorylation (OCR) (M2 MdMs [4]) | Energy metabolism: glycolysis (ECAR) and oxidative phosphorylation (OCR) (T cells) | Energy metabolism: glycolysis (ECAR) and oxidative phosphorylation (OCR) (B cells) | Mutagenic potential (Ames test) [5] | Mutagenic potential (Ames test) [6] | CD80 surface marker expression (M2 MdMs [2]; [7]) | CD206 surface marker expression (M2 MdMs [2]; [7]) |
| --- | --- | --- | --- | --- | --- | --- | --- | --- | --- | --- | --- | --- | --- | --- | --- | --- |
| CC(/C=C/C(C)=C/[C@@H]1Cc2nc(cs2)CCCCC(=O)O[C@@H](C)C/C(C)=C/C=C\C(=O)O1)=C\CN(C)C [DMDA, des-methyl des-amino pateamine A] | only reduced CD14 expression | Neither PatA nor DMDA induced apoptosis | did not affect the inflammatory environment | No effect | increased the anti-inflammatory surface marker TREM2 | did not affect the inflammatory environment | did not induce apoptosis | No effect | had no effect on energy consumption | had no effect on energy consumption | did not alter the energy metabolism | induced only glycolysis | negative in all Ames mutagenic assays | negative in all Ames mutagenic assays |  |  |
| CC(/C=C/C(C)=C/[C@@H]1Cc2nc(cs2)[C@@H](C)C[C@@H](N)CC(=O)O[C@@H](C)C/C(C)=C/C=C\C(=O)O1)=C\CN(C)C [PatA, pateamine A] | no significant effect on surface marker expression | Neither PatA nor DMDA induced apoptosis | did not affect the inflammatory environment | No effect |  | did not affect the inflammatory environment | did not induce apoptosis | No effect | reduced glycolysis and oxidative phosphorylation | reduced glycolysis and oxidative phosphorylation | did not alter the energy metabolism | induced oxidative phosphorylation and glycolysis | negative in all Ames mutagenic assays | negative in all Ames mutagenic assays | induced the pro-inflammatory marker CD80 | reduced the anti-inflammatory marker CD206 |
